From the NIST ThermoML archive (doi:10.1021/acs.jced.5b00260)
Numbers after ± are expanded uncertainties.

Assay: mn = molality of the nth substance listed, in mol/kg
Conditions: 100 kPa, Liquid, Vibrating tube method

C[C@H](N)C(=O)O [(S)-2-aminopropanoic acid] + O
mass density [kg/m3]
Conditions | m1 = 0.1 | m1 = 0.2 | m1 = 0.3 | m1 = 0.4
298.2 K | 999.9 ± 0.2 | 1002.7 ± 0.2 | 1005.5 ± 0.2 | 1008.2 ± 0.2
303.2 K | 998.4 ± 0.2 | 1001.9 ± 0.2 | 1004.1 ± 0.2 | 1006.8 ± 0.2
308.2 K | 996.8 ± 0.2 | 1000.1 ± 0.2 | 1002.3 ± 0.2 | 1004.1 ± 0.2
